# Results from ChEMBL document CHEMBL1201862, “PubChem BioAssay data set” (2004).
# Active and inactive are the calls of the source. For most assays here, no stated cut-off is given here; in the data, actives have a measured EC50 and inactives only a lower limit.
# Assays:
# [1] = target: T1, Corticotropin-releasing factor receptor 2/Corticotropin-releasing factor-binding protein (Homo sapiens, UniProt P24387+Q13324); experiment: Dose Response confirmation of uHTS hits for small molecule antagonists of the CRF-binding protein and CRF-R2 receptor complex.; format: functional; settings: read-out: IC50_Mean
# T1 sequence (Q13324 whole entry): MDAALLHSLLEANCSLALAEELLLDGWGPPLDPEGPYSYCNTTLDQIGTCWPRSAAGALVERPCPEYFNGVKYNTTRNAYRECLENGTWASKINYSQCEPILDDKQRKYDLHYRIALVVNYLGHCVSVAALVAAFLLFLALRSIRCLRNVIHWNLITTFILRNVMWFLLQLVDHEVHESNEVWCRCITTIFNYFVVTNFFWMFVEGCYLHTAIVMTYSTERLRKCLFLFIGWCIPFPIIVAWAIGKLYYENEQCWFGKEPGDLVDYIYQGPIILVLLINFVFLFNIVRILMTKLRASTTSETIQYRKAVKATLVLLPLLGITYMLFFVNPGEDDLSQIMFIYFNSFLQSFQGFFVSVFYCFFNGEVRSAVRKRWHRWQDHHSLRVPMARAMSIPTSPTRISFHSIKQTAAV
# T1 sequence (P24387 whole entry): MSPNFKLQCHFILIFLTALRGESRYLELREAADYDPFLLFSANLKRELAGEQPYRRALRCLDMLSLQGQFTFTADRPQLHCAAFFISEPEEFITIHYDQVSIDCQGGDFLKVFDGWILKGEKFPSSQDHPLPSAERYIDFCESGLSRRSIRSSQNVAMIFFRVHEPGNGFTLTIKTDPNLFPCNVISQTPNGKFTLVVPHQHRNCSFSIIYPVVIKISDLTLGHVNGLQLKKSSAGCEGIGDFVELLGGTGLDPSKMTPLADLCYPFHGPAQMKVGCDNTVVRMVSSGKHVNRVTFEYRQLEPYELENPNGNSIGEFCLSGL
# [2] = target: T1, Corticotropin-releasing factor receptor 2/Corticotropin-releasing factor-binding protein; experiment: activators of CRF receptor 2 with binding protein – uHTS hits, confirmation (AID 602473); format: functional; settings: read-out: EC50_Mean
# [3] = target: T2, Replicative DNA helicase DnaB (Mycobacterium tuberculosis, UniProt P9WMR3); experiment: DnaB intein splicing inhibitors, dose response, biochemical, cell-free fluorescence (AID 449749); format: functional
# T2 sequence (P9WMR3 whole entry): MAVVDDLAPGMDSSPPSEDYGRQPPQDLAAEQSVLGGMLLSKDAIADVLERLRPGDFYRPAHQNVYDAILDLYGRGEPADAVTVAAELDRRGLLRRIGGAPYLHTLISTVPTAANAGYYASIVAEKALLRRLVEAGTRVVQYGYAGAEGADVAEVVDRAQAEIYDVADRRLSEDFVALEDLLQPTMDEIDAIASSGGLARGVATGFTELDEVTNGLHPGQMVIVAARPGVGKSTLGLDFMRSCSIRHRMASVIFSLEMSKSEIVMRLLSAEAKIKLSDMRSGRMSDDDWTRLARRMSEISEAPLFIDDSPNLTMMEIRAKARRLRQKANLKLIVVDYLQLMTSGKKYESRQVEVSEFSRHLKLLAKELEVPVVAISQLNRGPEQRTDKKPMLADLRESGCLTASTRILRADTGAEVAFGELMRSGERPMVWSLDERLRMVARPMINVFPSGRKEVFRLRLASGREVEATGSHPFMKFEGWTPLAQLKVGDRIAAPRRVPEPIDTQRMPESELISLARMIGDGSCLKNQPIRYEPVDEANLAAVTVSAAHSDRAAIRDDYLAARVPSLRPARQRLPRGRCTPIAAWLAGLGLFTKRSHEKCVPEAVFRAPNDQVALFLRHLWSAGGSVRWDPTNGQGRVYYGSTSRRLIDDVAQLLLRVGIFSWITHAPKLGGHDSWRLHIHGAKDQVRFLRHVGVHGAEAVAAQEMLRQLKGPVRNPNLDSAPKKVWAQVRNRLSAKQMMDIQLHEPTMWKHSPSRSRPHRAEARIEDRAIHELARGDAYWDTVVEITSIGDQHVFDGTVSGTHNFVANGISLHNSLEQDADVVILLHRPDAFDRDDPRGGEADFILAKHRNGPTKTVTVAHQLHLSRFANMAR
# [4] = target: T3, Heat shock factor protein 1 (Mus musculus, UniProt P38532); experiment: HSF1 potentiators in luciferase reporter cells, confirmation, cell-based, NIH3T3, luminescence, dose retest (AID 435004); format: functional;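 further: stress induced by proteasome inhibitor MG132 added 30 min after compound; luciferase reporter driven by HSF1 response element in NIH3T3 cells; actives raise luminescence as potentiators of the MG132 stress response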
# T3 sequence (P38532 whole entry): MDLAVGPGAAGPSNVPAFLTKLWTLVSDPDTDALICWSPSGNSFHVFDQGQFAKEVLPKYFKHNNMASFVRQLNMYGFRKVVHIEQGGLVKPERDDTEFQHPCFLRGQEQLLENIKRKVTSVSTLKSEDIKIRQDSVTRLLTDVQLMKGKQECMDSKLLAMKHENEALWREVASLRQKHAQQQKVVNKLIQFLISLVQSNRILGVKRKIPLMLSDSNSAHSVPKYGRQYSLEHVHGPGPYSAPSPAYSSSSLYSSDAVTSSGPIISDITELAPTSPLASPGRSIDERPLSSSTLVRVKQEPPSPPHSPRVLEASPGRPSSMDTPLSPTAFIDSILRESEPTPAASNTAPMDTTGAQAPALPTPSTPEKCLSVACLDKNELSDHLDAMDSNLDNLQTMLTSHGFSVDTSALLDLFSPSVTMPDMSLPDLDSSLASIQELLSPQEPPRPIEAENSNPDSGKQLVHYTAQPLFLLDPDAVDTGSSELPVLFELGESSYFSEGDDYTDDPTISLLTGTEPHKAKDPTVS
# Protein RecA = target: T4, Protein RecA (Mycobacterium tuberculosis, UniProt P9WHJ3); experiment: Fluorescence Cell-Free Homogeneous Dose Retest to Identify Inhibitors of RecA-Intein Splicing Activity. [Related pubchem assays (depositor defined):AID2097, AID2223, AID489010, AID492950]; format: functional
# T4 sequence (P9WHJ3 whole entry): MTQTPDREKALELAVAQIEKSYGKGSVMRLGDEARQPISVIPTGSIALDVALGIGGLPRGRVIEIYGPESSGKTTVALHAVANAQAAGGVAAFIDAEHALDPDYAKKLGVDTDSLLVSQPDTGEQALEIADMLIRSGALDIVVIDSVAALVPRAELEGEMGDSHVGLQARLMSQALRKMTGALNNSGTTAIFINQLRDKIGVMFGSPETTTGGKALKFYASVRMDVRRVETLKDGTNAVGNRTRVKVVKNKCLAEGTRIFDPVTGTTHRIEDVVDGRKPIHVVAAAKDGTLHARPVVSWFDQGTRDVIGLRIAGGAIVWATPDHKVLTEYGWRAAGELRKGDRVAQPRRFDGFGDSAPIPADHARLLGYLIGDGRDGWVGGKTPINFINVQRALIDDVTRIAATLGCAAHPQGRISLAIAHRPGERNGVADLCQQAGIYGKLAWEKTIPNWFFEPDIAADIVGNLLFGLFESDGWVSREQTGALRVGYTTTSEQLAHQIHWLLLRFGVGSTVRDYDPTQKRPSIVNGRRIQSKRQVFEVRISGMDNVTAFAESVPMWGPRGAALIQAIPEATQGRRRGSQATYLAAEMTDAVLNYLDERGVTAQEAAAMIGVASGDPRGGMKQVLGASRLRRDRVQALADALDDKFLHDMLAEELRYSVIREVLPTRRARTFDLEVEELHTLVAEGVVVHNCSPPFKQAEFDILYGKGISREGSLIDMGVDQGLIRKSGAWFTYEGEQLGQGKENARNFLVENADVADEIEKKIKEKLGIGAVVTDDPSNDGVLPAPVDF
# [5] = target: Induced myeloid leukemia cell differentiation protein Mcl-1 (Homo sapiens, UniProt Q07820); format: functional
# BJ [6] = experiment: cells; format: functional, cell-based; settings: Homo sapiens
# BJ [7] = experiment: cytotoxicity toward BJ-TERT fibroblasts, dose response, cell-based, RAS-independent, luminescence (AID 1933); format: functional; settings: Homo sapiens
# BJ [8] = experiment: cytotoxicity toward BJ-TERT-LT-ST fibroblasts, dose response, cell-based, RAS-independent, luminescence (AID 1935); format: functional; settings: Homo sapiens;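 further: BJ fibroblasts immortalized with TERT plus LT and ST oncogenes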
# [9] = cytotoxicity toward DRD oncogenic fibroblasts, dose response, cell-based, non-viral oncogenic, luminescence (AID 1934); format: functional; settings: Homo sapiens
# [10] = C. albicans growth with fluconazole, confirmation, fluorescence, retest (AID 2467); format: functional, cell-based
# [11] = NIH-3T3 fibroblast cytotoxicity, dose response, cytotoxicity control, cell-based, fluorescence, Alamar Blue, secondary assay (AID 2327); format: functional;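 further: NIH-3T3 mouse fibroblasts cultured with fluconazole at 8 µg/mL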
# Genome polyprotein = Genome polyprotein (dengue virus type 2, UniProt P29990); experiment: Dengue-2 NS5 methyltransferase inhibitors, primary screen, biochemical, confirmation dose response (AID 588689); format: functional
# [12] = P. falciparum Dd2 growth inhibitors, dose response, SYBR Green, cherry-picked samples (AID 1159567); format: functional, cell-based
# Chain of Induced myeloid leukemia cell differentiation protein Mcl-1 (Q07820 whole entry): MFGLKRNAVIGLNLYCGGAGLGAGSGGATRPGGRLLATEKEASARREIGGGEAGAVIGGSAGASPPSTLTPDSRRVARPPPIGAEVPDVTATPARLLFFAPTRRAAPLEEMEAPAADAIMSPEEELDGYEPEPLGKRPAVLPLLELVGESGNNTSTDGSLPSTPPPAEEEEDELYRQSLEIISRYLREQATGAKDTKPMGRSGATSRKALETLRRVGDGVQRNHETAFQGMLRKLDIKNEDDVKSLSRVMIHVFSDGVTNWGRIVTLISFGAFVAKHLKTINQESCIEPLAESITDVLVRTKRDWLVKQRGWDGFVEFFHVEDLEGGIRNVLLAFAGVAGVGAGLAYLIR
# Chain of Genome polyprotein (P29990 2492-3391 limits assumed): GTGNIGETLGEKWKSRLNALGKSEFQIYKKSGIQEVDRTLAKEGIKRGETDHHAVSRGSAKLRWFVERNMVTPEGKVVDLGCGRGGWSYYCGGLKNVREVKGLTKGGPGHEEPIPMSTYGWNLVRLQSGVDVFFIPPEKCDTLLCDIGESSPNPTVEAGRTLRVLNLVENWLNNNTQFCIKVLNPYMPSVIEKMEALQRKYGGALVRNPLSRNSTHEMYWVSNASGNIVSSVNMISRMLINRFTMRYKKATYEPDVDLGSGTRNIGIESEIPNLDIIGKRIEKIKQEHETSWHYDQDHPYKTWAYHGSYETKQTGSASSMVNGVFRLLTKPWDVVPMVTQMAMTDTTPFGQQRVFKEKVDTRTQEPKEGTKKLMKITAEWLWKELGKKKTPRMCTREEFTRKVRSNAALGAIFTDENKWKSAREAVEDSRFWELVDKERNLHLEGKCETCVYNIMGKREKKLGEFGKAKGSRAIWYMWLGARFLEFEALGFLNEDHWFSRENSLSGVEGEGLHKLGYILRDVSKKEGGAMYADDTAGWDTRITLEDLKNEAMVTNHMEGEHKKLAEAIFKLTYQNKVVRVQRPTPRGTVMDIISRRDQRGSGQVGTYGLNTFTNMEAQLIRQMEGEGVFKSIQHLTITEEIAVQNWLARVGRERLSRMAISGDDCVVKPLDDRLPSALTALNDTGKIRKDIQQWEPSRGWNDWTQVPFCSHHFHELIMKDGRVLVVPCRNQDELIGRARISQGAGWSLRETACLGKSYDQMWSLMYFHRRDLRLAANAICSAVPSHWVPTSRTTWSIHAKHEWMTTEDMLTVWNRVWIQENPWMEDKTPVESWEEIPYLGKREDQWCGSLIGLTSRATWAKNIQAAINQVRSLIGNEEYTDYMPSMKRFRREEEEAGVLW
Structure (SMILES),IC50 [1],EC50 [2],EC50 [4],other results
C=C(C)C(=O)Oc1ccc(N2C(=O)[C@@H]3C4C=CC(C4)[C@@H]3C2=O)cc1,> 47.1 µM (inactive),> 53 µM (inactive),–,–
COc1ccc(N2C(=O)C(Cl)=C(Oc3cccc(OC)c3)C2=O)cc1,–,–,1.84 µM (active),AC50 [3]: 18.9 µM (active); EC50 (Protein RecA): 10.7 µM (active)
CCN(c1ccc(NC(=O)COC(=O)c2cc3ccccc3oc2=O)cc1)C(C)C,–,–,–,IC50 [5]: 25.3 µM (not active)
O=C(CCC(=O)OCC(F)(F)C(F)F)NCc1ccccc1,> 47.1 µM (inactive),> 53 µM (inactive),–,–
CC1=C(C(=O)OC(C)C)C(c2cccs2)N2C(=O)C(C)SC2=N1 (configuration not stated),> 47.1 µM (inactive),> 53 µM (inactive),–,–
c1ccc(-c2cnnc(SCc3cn4cccnc4n3)n2)cc1,–,–,–,EC50 (BJ [6]): > 150 µM (inconclusive); EC50 (BJ [7]): > 150 µM (not active); EC50 (BJ [8]): > 150 µM (inconclusive); EC50 [9]: 24.9 µM (active)
Cc1noc(C)c1COC(=O)c1ccccc1Oc1ccccc1,–,–,> 260 µM (inactive),–
COc1ccc(C(CC(=O)c2ccc(C)cc2)C(C#N)C#N)cc1OC (configuration not stated),–,–,5.54 µM (active),AC50 [3]: 11.4 µM (active); EC50 (Protein RecA): 4.79 µM (active)
CC(C)c1cc(N2CCC(=O)NC2=O)cc(C(=O)O)c1O,> 47.1 µM (inactive),> 53 µM (inactive),–,–
Cc1ccc2nc(NCc3ccccc3)c(C=O)c(=O)n2c1,–,–,> 260 µM (inactive),–
CCCc1nc2ccc(NC(=O)c3cccs3)cc2c(=O)n1Cc1ccccc1Cl,–,–,> 260 µM (inactive),–
CC1CCCCN1C(C(=O)O)c1ccccc1 (configuration not stated),> 47.1 µM (inactive),> 53 µM (inactive),–,–
CCOc1ccc(N2CC(C(=O)NCc3nnnn3-c3ccc(C)c(C)c3)CC2=O)cc1 (configuration not stated),> 47.1 µM (inactive),> 53 µM (inactive),–,–
CCC(C)NS(=O)(=O)c1ccc(OCC(=O)NCc2ccccn2)cc1 (configuration not stated),> 47.1 µM (inactive),> 53 µM (inactive),–,–
CC1CCN(c2ccc(NC(=O)Cc3ccccc3)cc2)CC1,–,–,–,IC50 [5]: 5.35 µM (not active)
O=C(CCN1C(=O)/C(=C/c2ccc(Cl)cc2)SC1=S)Nc1cccnc1,–,–,–,EC50 (BJ [6]): > 150 µM (not active); EC50 (BJ [7]): 14.9 µM (active); EC50 (BJ [8]): > 150 µM (not active); EC50 [9]: 24.7 µM (active)

Structure (SMILES),IC50 [1],EC50 [2],EC50 [4],other results
Nc1ccc2c(c1Cl)C(=O)c1ccc(N)c(Cl)c1C2=O,–,–,–,IC50 [5]: 2.76 µM (active)
CC(C)c1ccc2c(c1)[C@H]1OCC[C@H]1[C@@H](c1cccs1)N2,–,–,> 260 µM (inactive),–
COc1ccc(OC)c(N(CC(=O)N2CCC(C)CC2)S(=O)(=O)c2ccccc2)c1,–,–,> 260 µM (inactive),–
O=C(CSc1nnc(-c2ccco2)n1Cc1ccccc1)OC1CCCCC1,–,–,35.8 µM (active),EC50 [10]: > 38 µM (not active); EC50 [11]: > 150 µM (inactive)
Cc1c(-c2nnc(S)n2-c2ccc(C(F)(F)F)cc2)nnn1-c1ccccc1,–,–,> 260 µM (inactive),–
COc1cc(C(=O)NCCc2ccc(F)cc2)ccc1OCC(=O)N1CCOCC1,–,–,> 260 µM (inactive),–
CC(C)c1ccc(N(C(=O)CNC(=O)c2ccco2)C(C(=O)NC2CCCC2)c2ccncc2)cc1 (configuration not stated),–,–,> 260 µM (inactive),–
COC(=O)C(CC(=O)c1cccc(OC)c1)c1ccc(F)cc1 (configuration not stated),> 47.1 µM (inactive),> 53 µM (inactive),–,–
Cc1ccc(NS(=O)(=O)c2ccc(C(=O)Nc3nncs3)cc2)cc1,> 47.1 µM (inactive),> 53 µM (inactive),–,–
COC1=CC(=O)C(O)=C(CCCCCCC/C=C/CCCCCCCC2=C(O)C(=O)C=C(OC)C2=O)C1=O,–,–,–,IC50 (Genome polyprotein): 10.8 µM (active); AC50 [3]: 2.6 µM (active); EC50 [10]: > 38 µM (not active); EC50 [11]: > 160 µM (inactive); EC50 (Protein RecA): 2.13 µM (active)
COc1ccccc1CNC(=O)CCc1nnc2ccc(NCCCN3CCCC3=O)nn12,> 47.1 µM (inactive),> 53 µM (inactive),–,–
O=C(Cc1ccccn1)N1CCCCN2[C@@H](CO)[C@@H](c3ccc(C#Cc4ccccc4)cc3)[C@@H]2C1,–,–,–,AC50 [12]: 4.71 µM (active)
COc1ccc2c3c(n(C)c2c1)[C@@H](CO)N(C(=O)c1ccc(F)cc1)CC31CN(CC2CCOCC2)C1,–,–,–,AC50 [12]: 12.1 µM (active)
CO[C@@H]1CN(C)C(=O)c2cc(NC(=O)Cc3ccccc3)ccc2OC[C@H](C)N(C(=O)c2ccccc2F)C[C@@H]1C,–,–,–,AC50 [12]: 7.66 µM (active)
COc1ccc(C#Cc2ccc3c(c2)[C@H]2[C@H](CCN2C(=O)c2ccccn2)[C@@H](CO)N3)cc1,–,–,–,AC50 [12]: 3.75 µM (active)
